Reference: patent publication US8232275B2, “2,2-bis-(hydroxymethyl)cyclopropylidenemethyl-purines and -pyrimidines as antiviral agents” (Wayne State University, priority 2002, dated 2012)
Marks after values point to notes of the source that are not given here.

Tests used:
KB cells = experiment: Cytotoxicity in KB cells, growth during two population doublings (crystal violet); assay type: cell-based
Protocol: (§1) Cytotoxicity assays. Two different assays were used to explore cytotoxicity of selected compounds as we have detailed previously. (i) Cytotoxicity produced in stationary HFF cells was determined by microscopic inspection of cells used in plaque assays which were not affected by the virus. Turk, S. R., et al., Antimicrob. Agents Chemother. 31:544-550 (1987). (ii) The effect of compounds during two population doublings of KB cells was determined by crystal violet staining and spectrophotometric quantitation of dye eluted from stained cells. Prichard, M. N., et al., Antimicrob. Agents Chemother. 35:1060-1065 (1991). Data Analysis. Dose-response relationships were constructed by linearly regressing the percent inhibition of parameters derived in the preceding sections against log drug concentrations. Fifty-percent inhibitory (IC50) concentrations were calculated from the regression lines. Samples containing positive controls (acyclovir for HSV-1, ganciclovir for HCMV, and 2-acetylpyridine thiosemicarbazone for cytotoxicity) were used in all assays. Results from sets of assays were rejected if inhibition by the positive control deviated from its mean response by >±1.5 standard deviations.

HSV-1 = HSV-1 ELISA in BSC-1 cells; assay type: cell-based, herpes simplex virus type 1 (HSV-1); conditions: Human alphaherpesvirus 1
Protocol: (§2) Cells and viruses. The routine growth and passage of KB cells was performed in monolayer cultures using minimal essential medium (MEM) with either Hanks salts [MEM(H)] or Earle salts [MEM(E)] supplemented with 10% calf serum. The sodium bicarbonate concentration was varied to meet the buffering capacity required. Cultures of diploid human foreskin fibroblasts (HFF) or MRC-5 cells were grown in medium consisting of MEM(E) with 10% fetal bovine serum. Cells were passaged at 1:2 to 1:10 dilutions according to conventional procedures by using 0.05% trypsin plus 0.02% EDTA in a HEPES buffered salt solution (HBS) (Shipman, C., Jr., Proc. Soc. Exp. Biol. 130:305-310 (1969)) as described previously. Turk, S. R., et al., Antimicrob. Agents Chemother. 31:544-550 (1987). HFF and MRC-5 cells were passaged only at 1:2 dilutions. CEM cells were maintained in suspension culture as detailed previously. Kucera, L. S., et al., AIDS Res. Human Retroviruses 9:307-314 (1993).
(§3) Virological procedures. Stock HCMV was prepared by infecting HFF cells at a multiplicity of infection (m.o.i.) of <0.01 plaque-forming units (p.f.u.) per cell. Cell growth medium was changed every four days until cytopathology was evident in all cells (approximately 21 days). Supernatant fluids were retained as the virus stock. High titer HSV-1 stocks were prepared by infecting KB cells at an m.o.i. of <0.1 as detailed previously. Turk, S. R., et al., Antimicrob. Agents Chemother. 31:544-550 (1987). Virus titers were determined using monolayer cultures of HFF cells for HCMV and monolayer cultures of BSC-1 cells for HSV-1 as described earlier. Prichard, M. N. et al., J. Virol. Methods 28:101-106 (1990). Briefly, HFF or BSC-1 cells were planted as described above in 96-well cluster dishes and incubated overnight at 37° C. in a humidified 3% CO2-97% air atmosphere. The next day cultures were inoculated with HCMV or HSV-1 and serially diluted 1:3 across the remaining eleven columns of the 96-well plate. Cultures were incubated at 37° C. for 2 hr to permit virus adsorption and then virus inoculum was replaced with 0.2 mL of fresh medium. Cultures were incubated for seven days for HCMV, two or three days for HSV-1, medium was removed, and the cell sheets were stained with 0.1% crystal violet in 20% methanol. Plaques were enumerated under 20-fold magnification in wells having the dilution which gave 5 to 20 plaques per well. Virus titers were calculated according to the following formula: Titer (p.f.u./mL)=number of plaques×5×3^n; where n represents the nth dilution of the virus used to infect the well in which plaques were enumerated.
Assays for Antiviral Activity. (b) HSV-1. An enzyme-linked immunosorbent assay (ELISA) was employed to detect HSV-1. 96-well cluster dishes were planted with BSC-1 cells at 10,000 cells per well, in a total volume of 200 μL per well of MEM(E) plus 10% calf serum. After overnight incubation at 37° C., drug and HSV-1 was added at the rate of 100 PFU/well. ELISA plates were blocked with 200 μL per well of 10% calf serum and 0.05% tween in HBS. After incubation for 30 minutes, the blocking agent was rinsed two times with HBS-T. A 1:400 dilution of AP conjugated rabbit anti-HSV-1 antibody in HBS-F was added. Plates were sealed with adhesive sheet, and incubated on rocker for one hour at 37° C. Plates were developed in the dark with […] per well of substrate solution containing p-nitrophenyl phosphate. Plates were read at 492 nm. Drug effects were calculated as a percentage of the reduction in virus in the presence of each drug concentration compared to the titer obtained in the absence of drug. Acyclovir was used as a positive control in all experiments.
(§4) Data Analysis. Dose-response relationships were constructed by linearly regressing the percent inhibition of parameters derived in the preceding sections against log drug concentrations. Fifty-percent inhibitory (IC50) concentrations were calculated from the regression lines. […]

[1] = Cytotoxicity in stationary HFF cells, microscopic (visual) inspection; assay type: cell-based; conditions: human, stationary HFF cells (uninfected cells of the plaque assays), read-out: IC50 (μM) HFF (visual)
Protocol: as §1

HCMV = HCMV plaque reduction assay in HFF cells; assay type: cell-based, human cytomegalovirus (HCMV); conditions: Human betaherpesvirus 5, HFF host cells
Protocol: as §2, §3
Assays for Antiviral Activity. (a) HCMV. The effect of compounds on the replication of HCMV has been measured using a plaque reduction assay. HFF cells in 24-well cluster dishes were infected with approximately 100 p.f.u. of HCMV per cm^2 cell sheet using the procedures detailed above. Following virus adsorption, compounds dissolved in growth medium were added to duplicate wells in three to six selected concentrations. Following incubation at 37° C. for 7 to 10 days, cell sheets were fixed, stained with crystal violet and microscopic plaques enumerated as described above. Drug effects were calculated as a percentage of reduction in number of plaques in the presence of each drug concentration compared to the number observed in the absence of drug. Ganciclovir (DHPG) was used as a positive control in all experiments.
as §4, with “lines. Samples containing positive controls (acyclovir for HSV-1, ganciclovir for HCMV, and 2-acetylpyridine thiosemicarbazone for cytotoxicity) were used in all assays.” for “lines.”

SMILES | IC50 (μM) KB (growth) (KB cells; human) [µM] | melting point [°C] | IC50 (HSV-1) [µM] | CC50 [1] [µM] | IC50 (HCMV) [µM] | IC50 (μM) KB (growth) (KB cells; cytotoxicity, KB cell growth)
COc1nc(N)nc2c1ncn2/C=C1/CC1(CO)CO [Compound 1g, (Z)-2-amino-6-methoxy-9-{[2,2-bis-(hydroxymethyl)cyclopropylidene]-methyl}purine] | >100 | 188 to 189 | > 100 | > 100 | 3.5 | –
Nc1nc(NC2CC2)c2ncn(/C=C3/CC3(CO)CO)c2n1 [Compound 1h, (Z)-2-Amino-6-cyclopropylamino-9-{[2,2-bis-(hydroxymethyl)-cyclopropylidene]methyl}purine] | – | 195 to 196 | – | – | – | –
Cc1cn(/C=C2/CC2(CO)CO)c(=O)[nH]c1=O [Compound 1f, (Z)-1-{[2,2-Bis-(hydroxymethyl)cyclopropylidene]methyl}-thymine] | >100 | – | 10 | > 100 | > 100 | –
Nc1nc(N)c2ncn(/C=C3\CC3(CO)CO)c2n1 [Compound 2o, (E)-2,6-Diamino-9-{[2,2-bis-(hydroxymethyl)cyclopropylidene]-methyl}purine] | – | 219 to 220 | – | – | – | –
Nc1nc2c(ncn2COCCO)c(=O)[nH]1 [Acyclovir, reference compound] | – | – | 0.15 | – | – | >100 ^b μM
Nc1ncnc2c1ncn2/C=C1/CC1(CO)CO [Compound 1a, (Z)-9-{(2,2-Bis-(hydroxymethyl)cyclopropylidene)methyl}-adenine] | >100 | – | 50 | > 100 | 3.6 | –
Nc1ccn(/C=C2\CC2(CO)CO)c(=O)n1 [Compound 2e, (E)-1-{[2,2-bis-(hydroxymethyl)cyclopropylidene]methyl}cytosine] | – | 249 to 251 | – | – | – | –
Nc1nc(N)c2ncn(/C=C3/CC3(CO)CO)c2n1 [Compound 1o, (Z)-2,6-Diamino-9-{[2,2-bis-(hydroxymethyl)cyclopropylidene]-methyl}-purine] | >100 | 249 to 250 | > 100 | > 100 | 15 | –
Nc1nc(NC2CC2)c2ncn(/C=C3\CC3(CO)CO)c2n1 [Compound 2h, (E)-2-Amino-6-cyclopropylamino-9-{[2,2-bis-(hydroxymethyl)-cyclopropylidene]methyl}purine] | – | 164 to 165 | – | – | – | –
Nc1nc2c(ncn2/C=C2/CC2(CO)CO)c(=O)[nH]1 [Compound 1c, (Z)-9-{[2,2-Bis-(hydroxymethyl)cyclopropylidene]methyl}-guanine] | >100 | – | > 100 | > 100 | 0.46 | –
Nc1ccn(/C=C2/CC2(CO)CO)c(=O)n1 [Compound 1e, (Z)-1-{[2,2-Bis-(hydroxymethyl)cyclopropylidene]methyl}-cytosine] | >100 | 250 to 253 | > 100 | > 100 | 32 | –
Nc1nc(O)c2ncn(COC(CO)CO)c2n1 [Ganciclovir, reference compound] | – | – | – | > 100 | 4.1 | –
Nc1nc2c(ncn2/C=C2\CC2(CO)CO)c(=O)[nH]1 [Compound 2c, (E)-9-{[2,2-Bis-(hydroxymethyl)cyclopropylidene]methyl}-guanine] | >100 | – | 39 | > 100 | > 100 | –
COc1nc(N)nc2c1ncn2/C=C1\CC1(CO)CO [Compound 2g, (E)-2-amino-6-methoxy-9-{[2,2-bis-(hydroxymethyl)cyclopropylidene]-methyl}purine] | – | 179 to 180 | – | – | – | –
